Test results as given in US7026487B2, “Amines substituted with a dihydronaphthalenyl, chromenyl, or thiochromenyl group, a pyridyl group and an alkyl group, having retinoid-like biological activity” (Allergan, Inc., priority 2000, dated 2006).

Legend:
RXRβ [1] = target: T1, RXRβ (UniProt P28704); assay: holoreceptor transactivation assay, RXRβ; type: cell-based; conditions: NA = Not Active, read-out: RXR Trans. EC50 (nM) β
T1 sequence (P28704 1-520): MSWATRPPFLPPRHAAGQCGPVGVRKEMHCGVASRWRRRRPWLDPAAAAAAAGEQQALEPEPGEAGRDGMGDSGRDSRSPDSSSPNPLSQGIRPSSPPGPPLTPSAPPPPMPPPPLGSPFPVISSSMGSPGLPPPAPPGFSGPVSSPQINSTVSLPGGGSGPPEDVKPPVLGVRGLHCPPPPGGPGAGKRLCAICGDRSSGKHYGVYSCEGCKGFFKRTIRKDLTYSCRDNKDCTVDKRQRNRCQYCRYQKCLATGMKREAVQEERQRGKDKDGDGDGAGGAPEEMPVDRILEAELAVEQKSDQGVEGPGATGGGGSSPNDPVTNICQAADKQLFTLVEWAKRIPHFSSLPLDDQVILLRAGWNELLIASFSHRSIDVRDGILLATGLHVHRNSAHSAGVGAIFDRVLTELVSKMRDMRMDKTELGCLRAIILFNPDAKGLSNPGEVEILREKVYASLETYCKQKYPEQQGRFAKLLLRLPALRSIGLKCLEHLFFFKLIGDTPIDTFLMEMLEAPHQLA
Source text: (§2) The results obtained in this assay are expressed in EC50 numbers, as they are also in the chimeric receptor transactivation assay.

RXRβ [2] = target: T1, RXRβ; assay: ligand binding assay, RXRβ; conditions: read-out: RXR Bind Ki (nM) β
Source text: (§3) The results obtained in this assay are expressed in EC50 numbers, as they are also in the chimeric receptor transactivation assay. The results of ligand binding assay are expressed in Kd numbers.
(§4) Particularly, the transactivation data pertaining to RAR receptors were obtained in the chimeric assay, and the data pertaining to transactivation of RXR receptors were obtained in the holoreceptor transactivation assay.

RXRγ [3] = target: T2, RXRγ (UniProt P28705); assay: ligand binding assay, RXRγ; conditions: read-out: RXR Bind Ki (nM) γ
T2 sequence (P28705 1-463): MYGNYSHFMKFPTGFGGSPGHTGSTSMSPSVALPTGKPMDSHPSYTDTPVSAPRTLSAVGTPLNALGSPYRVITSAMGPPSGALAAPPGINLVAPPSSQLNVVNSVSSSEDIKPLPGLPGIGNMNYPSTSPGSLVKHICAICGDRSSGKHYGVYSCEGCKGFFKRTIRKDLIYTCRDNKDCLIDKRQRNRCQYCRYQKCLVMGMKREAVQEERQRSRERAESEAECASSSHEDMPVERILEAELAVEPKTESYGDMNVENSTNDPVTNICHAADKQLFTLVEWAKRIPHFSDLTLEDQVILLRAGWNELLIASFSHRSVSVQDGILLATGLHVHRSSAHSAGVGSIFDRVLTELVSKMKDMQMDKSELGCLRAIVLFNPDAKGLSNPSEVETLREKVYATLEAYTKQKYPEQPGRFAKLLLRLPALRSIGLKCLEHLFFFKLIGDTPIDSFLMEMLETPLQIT
Source text: as §3, §4

RARβ = RARβ (Homo sapiens, UniProt P10826); assay: chimeric receptor transactivation assay, RARβ; type: cell-based; conditions: NA = Not Active, read-out: RAR Trans. EC50 (nM) β
RARβ, sequence (P19793 whole entry): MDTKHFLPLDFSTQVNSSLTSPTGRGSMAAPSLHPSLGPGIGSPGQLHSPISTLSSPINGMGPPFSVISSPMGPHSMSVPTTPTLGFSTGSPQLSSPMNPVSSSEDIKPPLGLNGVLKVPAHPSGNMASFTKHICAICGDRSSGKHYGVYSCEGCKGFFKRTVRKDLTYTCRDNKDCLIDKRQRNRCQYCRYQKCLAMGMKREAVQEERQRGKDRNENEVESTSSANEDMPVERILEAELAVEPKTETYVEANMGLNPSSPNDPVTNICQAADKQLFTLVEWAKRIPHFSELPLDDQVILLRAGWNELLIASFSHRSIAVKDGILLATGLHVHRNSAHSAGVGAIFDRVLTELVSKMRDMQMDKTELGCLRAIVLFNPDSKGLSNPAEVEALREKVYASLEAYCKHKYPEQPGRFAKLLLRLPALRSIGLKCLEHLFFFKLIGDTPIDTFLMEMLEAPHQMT
RARβ, sequence (P10826 154-455): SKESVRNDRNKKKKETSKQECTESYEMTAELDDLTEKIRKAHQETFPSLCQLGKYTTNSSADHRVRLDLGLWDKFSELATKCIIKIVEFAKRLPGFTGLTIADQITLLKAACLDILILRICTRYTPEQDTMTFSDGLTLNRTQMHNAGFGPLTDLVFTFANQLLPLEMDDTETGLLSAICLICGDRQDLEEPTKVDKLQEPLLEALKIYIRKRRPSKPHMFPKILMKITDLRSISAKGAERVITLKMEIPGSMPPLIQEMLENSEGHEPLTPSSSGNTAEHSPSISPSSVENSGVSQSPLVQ
Source text: (§1) The specification of U.S. Pat. No. 5,455,265 is hereby expressly incorporated by reference.

RARγ = RARγ (Homo sapiens, UniProt P13631); assay: chimeric receptor transactivation assay, RARγ; type: cell-based; conditions: NA = Not Active, read-out: RAR Trans. EC50 (nM) γ
RARγ, sequence (P13631 whole entry): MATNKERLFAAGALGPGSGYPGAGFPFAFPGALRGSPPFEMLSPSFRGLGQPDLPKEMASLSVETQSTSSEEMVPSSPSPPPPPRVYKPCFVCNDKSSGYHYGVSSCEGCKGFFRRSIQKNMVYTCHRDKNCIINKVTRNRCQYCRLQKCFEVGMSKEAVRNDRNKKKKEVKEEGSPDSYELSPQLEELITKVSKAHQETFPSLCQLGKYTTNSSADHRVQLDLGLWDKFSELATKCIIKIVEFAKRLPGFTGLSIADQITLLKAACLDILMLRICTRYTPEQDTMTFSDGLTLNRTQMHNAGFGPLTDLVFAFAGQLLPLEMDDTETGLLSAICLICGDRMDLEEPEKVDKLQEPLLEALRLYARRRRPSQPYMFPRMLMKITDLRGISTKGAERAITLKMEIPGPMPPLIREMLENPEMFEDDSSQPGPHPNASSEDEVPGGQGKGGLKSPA
RARγ, sequence (P19793 whole entry, further chain): as the sequence (P19793 whole entry) above
Source text: as §1

RXRγ [4] = target: T2, RXRγ; assay: holoreceptor transactivation assay, RXRγ; type: cell-based; conditions: NA = Not Active, read-out: RXR Trans. EC50 (nM) γ
Source text: as §2

SMILES	EC50 (RXRβ [1]) [nM]	Ki (RXRβ [2]) [nM]	other results
CCCN(c1ccc(C(=O)O)cc1)c1cc2c(cc1C)C(C)=CCC2(C)C [Compound 46, 4-[n-Propyl(3,5,8,8-tetramethyl-7,8-dihydronaphthalen-2-yl)amino]benzoic acid]	> 1000	> 10000	Ki (RXRγ [3]): > 10000 nM
C=CCN(c1ccc(C(=O)O)cc1)c1ccc2c(c1)C(C(C)(C)C)=CCC2(C)C [Compound 90, 4-[(8-t-Butyl-5,5-dimethyl-5,6-dihydronaphthalen-2-yl)(prop-2-en-yl)lamino]-benzoic acid]	–	–	EC50 (RARβ): > 1000 nM; EC50 (RARγ): > 1000 nM
CCCCCCOc1cc2c(cc1N(CCC)c1ccc(C(=O)O)cc1)C(C)=CCC2(C)C [Compound 145, 4-[(3-n-Hexyloxy-5,5,8-trimethyl-5,6-dihydronaphthalen-2-yl)-n-propylamino]benzoic acid]	–	–	EC50 (RXRγ [4]): > 1000 nM
CCCN(c1ccc(C(=O)O)cc1)c1cc2c(cc1C)C(C(C)C)=CCC2(C)C [Compound 54, 4-[n-Propyl-(5-isopropyl-3,8,8-trimethyl-7,8-dihydronaphthalen-2-yl)lamino]benzoic acid]	> 1000	> 1000	–
CCN(c1ccc(C(=O)O)cc1)c1cc2c(cc1C)C(C)=CCC2(C)C [Compound 45, 4-[Ethyl(3,5,8,8-tetramethyl-7,8-dihydronaphthalen-2-yl)amino]benzoic acid]	–	> 1000	EC50 (RXRγ [4]): > 1000 nM; Ki (RXRγ [3]): > 1000 nM
CCCN(c1ccc(C(=O)O)cc1)c1cc2c(cc1OCc1ccccc1)C(C)(C)CC=C2C(C)C [Compound 157]	–	–	EC50 (RARβ): > 1000 nM
CC1=CCC(C)(C)c2cc(N(CC3CC3)c3ccc(C(=O)O)cc3)c(C)cc21 [Compound 47, 4-[Cyclopropylmethyl(3,5,8,8-tetramethyl-7,8-dihydronaphthalen-2-yl)amino]benzoic acid]	–	> 1000	–
CC1=CCC(C)(C)c2cc(N(C)c3ccc(C(=O)O)cc3)ccc21 [Compound 67, 4-[Methyl-(5,8,8-trimethyl-7,8-dihydro-naphthalen-2-yl)-amino]-benzoic acid]	–	> 1000	–
CC1=CCC(C)(C)c2cc(N(C)c3ccc(C(=O)O)cc3)c(C)cc21 [Compound 44, 4-[Methyl(3,5,8,8-tetramethyl-7,8-dihydronaphthalen-2-yl)amino]benzoic acid]	–	> 1000	EC50 (RXRγ [4]): > 1000 nM; Ki (RXRγ [3]): > 1000 nM
Cc1cc2c(cc1N(C)c1ccc(C(=O)O)cc1)C(C)(C)CC=C2C(C)C [Compound 52, 4-[Methyl-(5-isopropyl-3,8,8-trimethyl-7,8-dihydronaphthalen-2-yl)amino]benzoic acid]	> 1000	–	–
CCN(c1ccc(C(=O)O)cc1)c1cc2c(cc1C)C(C(C)C)=CCC2(C)C [Compound 53]	> 1000	> 1000	–
